Literature values, collected in US11839654B2, “Combination therapy” (Eli Lilly and Company, priority 2018, dated 2023).

Experiments:
[1] = system: JNPL3 tau mouse model; details: Yuzwa et al. 2012; cited from earlier work
[2] = system: Tg4510 tau mouse model; details: Graham et al. 2014; cited from earlier work

CCN=C1N[C@@H]2[C@@H](O)[C@H](O)[C@@H](CO)O[C@@H]2S1 [Thiamet-G]
effect on motor neuron loss [1]: slowing motor neuron loss
effect on tau pathology and dystrophic neurites [2]: reduction in tau pathology and dystrophic neurites
